Key:
Type in all cases: functional, organism-based
Details in all cases: Canis lupus familiaris; tested as the 125I-labelled form
Canis familiaris [1] = organism: Canis familiaris; experiment: Thrombus and blood ratio was determined in the canine arteriovenous shunt model in arterial rich condition.
Canis familiaris [2] = organism: Canis familiaris; experiment: Thrombus and blood ratio was determined in the canine arteriovenous shunt model in venous rich condition.
Canis familiaris [3] = organism: Canis familiaris; experiment: Compound was tested for uptake in thrombus in the canine arteriovenous shunt model in arterial rich condition.
Canis familiaris [4] = organism: Canis familiaris; experiment: Compound was tested for uptake in thrombus in the canine arteriovenous shunt model in venous rich condition.

Compound | Uptake ratio (Canis familiaris [1]) | Uptake ratio (Canis familiaris [2]) | ID/g (Canis familiaris [3]) | ID/g (Canis familiaris [4])
CN1C(=O)[C@@H](Cc2ccc(O)c(I)c2)NC(=O)c2cccc(c2)CNC(=O)[C@H](CC(=O)O)NC(=O)CNC(=O)[C@@H]1CCCN=C(N)N | 173 | 19.3 | 1.81% | 0.25%
CN1C(=O)[C@@H](CCCCNC(=O)CCc2ccc(O)c(I)c2)NC(=O)c2cccc(c2)CNC(=O)[C@H](CC(=O)O)NC(=O)CNC(=O)[C@@H]1CCCN=C(N)N | 43.9 | 7.82 | 2.6% | 0.45%
